Laboratory results published in US12209096B2, “Compounds and compositions for inducing chondrogenesis” (NOVARTIS AG, priority 2017, dated 2025).

Experiments:
[1] = intrinsic clearance in rat liver microsomes; assay type: in vitro ADME
[2] = intrinsic clearance in human liver microsomes; assay type: in vitro ADME
CYP3A4 = CYP3A4 (Homo sapiens, UniProt P08684); experiment: CYP3A4 inhibition; assay type: in vitro ADME; conditions: read-out: CYP3A4 inh.
C3H10T1/2 cell line = experiment: alkaline phosphatase assay in C3H10T1/2; assay type: cell-based; conditions: Mus musculus, C3H 10T1/2, 144 h, alkaline phosphatase assay in C3H10T1/2, 6 days; for Emax: read-out: (D) % Efficacy; for IC50: read-out: (D) IC50
Procedure, shortened: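 Mouse C3H10T1/2 Clone 8 cells in DMEM/10% FBS dosed 24 h after plating, then cultured 6 days at 37° C. Fixed cells stained for alkaline phosphatase (Fast Blue RR/Naphthol AS-MX), imaged at 561 nm; readout is ALP-positive cells per well by high-content imaging.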

[3] = tested on: human chondrogenic progenitor cell (CPCs); experiment: Collagen type II assay (chondrogenic differentiation); assay type: cell-based; conditions: 432 h, hCPCs, 18 days; for Emax: read-out: (B) % Efficacy; for EC50: read-out: (B) EC50
Description: To initiate chondrogenesis in primary CPCs, 8000 cells were plated/well in a Costar 96 well plate in MSCGM. After 24 hours the MSCGM was removed and replaced with DMEM containing 1% FBS. The test compound was then added to each well at the indicated dose. The cultures were grown at 37° C. for 18 days. A media supplement of an additional 50 μl of DMEM containing 1% FBS was given 10 days after chondrogenic induction.
To detect the presence of Collagen type II, hCPCs were fixed with 10% formalin for 20 minutes, permeablized with PBS containing 0.1% triton X-100, 0.2 mg/ml of Collagenase 2 for 10 minutes, blocked with PBS containing 5% BSA for 1 hr at room temperature, followed by incubation with primary antibody (anti-type II collagen antibody) in PBS containing 1% BSA overnight at 4° C. Cells were washed 3 times with PBS and incubated with fluorophore-conjugated secondary antibody and Hoechst dye for 1 hour at room temperature, followed by washing with PBS for 3 times.
The total intensity of staining was imaged by fluoresecent microscopy and/or quantified by high content imagining with the ImageXpress Micro (Molecular Devices, Sunnyvale, CA). Data analyses were performed with the customized multiwavelength cell-scoring application.

[4] = tested on: normal human articular chondrocytes (NHACs); experiment: alkaline phosphatase assay in NHAC; assay type: cell-based; conditions: Homo sapiens, Chondrocyte, 240 h, 10 days; for Emax: read-out: (C) % Efficacy; for IC50: read-out: (C) IC50
Description: To initiate differentiation in NHACs, 16,000 cells were plated/well in Costar 96 well plate in CGM media (Lonza). After 24 hours the MSCGM was removed and replaced with DMEM containing 1% FBS. The test compound was then added to each well at the indicated dose. The cultures were grown at 37° C. for 10 days.
To detect the presence of hypertrophic cells, NHACs were fixed with 10% formalin and Hoeschst dye for 20 minutes, rinsed in PBS, then stained with Fast Blue RR Salt with Naphthol AS-MX Phosphate Alkaline Solution.
The total intensity of staining was imaged by fluoresecent microscopy, using the 651 wavelength, and/or quantified by high content imagining with the ImageXpress Micro (Molecular Devices, Sunnyvale, CA). Data analyses were performed with the customized multiwavelength cell-scoring application.

NHACs = experiment: calcium flux assay; assay type: cell-based, human; conditions: Homo sapiens; for Emax: read-out: (A) % Efficacy
Procedure, shortened: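 FLIPR fluorescence (ex 470–495 nm, em 515–575 nm) was read before and after compound dispense at the indicated dose. Chondrocytes (NHACs), 2000 cells/well, had been dye-loaded 24 h after plating with Calcium 5 in HBSS/HEPES plus 5 mM probenecid, 1 h, room temperature.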

Sequence of CYP3A4 (P08684 whole entry): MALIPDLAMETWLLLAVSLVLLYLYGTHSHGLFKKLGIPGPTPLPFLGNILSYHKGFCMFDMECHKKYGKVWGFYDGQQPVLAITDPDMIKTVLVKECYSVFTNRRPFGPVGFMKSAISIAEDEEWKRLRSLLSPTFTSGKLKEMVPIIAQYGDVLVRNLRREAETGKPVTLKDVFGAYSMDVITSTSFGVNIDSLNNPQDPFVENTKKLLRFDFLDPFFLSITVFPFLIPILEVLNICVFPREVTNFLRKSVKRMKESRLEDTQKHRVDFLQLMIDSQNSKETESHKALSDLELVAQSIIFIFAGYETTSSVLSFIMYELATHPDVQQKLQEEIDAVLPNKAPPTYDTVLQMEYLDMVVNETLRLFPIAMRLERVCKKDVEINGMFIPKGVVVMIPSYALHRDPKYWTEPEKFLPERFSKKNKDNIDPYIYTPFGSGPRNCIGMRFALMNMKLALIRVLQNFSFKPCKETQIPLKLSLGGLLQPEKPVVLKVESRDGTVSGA

Row | Structure (SMILES) | microsomal CLint [1] | microsomal CLint [2] | IC50 (CYP3A4) | Emax (C3H10T1/2 cell line) | IC50 (C3H10T1/2 cell line) | Emax [3] | EC50 [3] | Emax [4] | IC50 [4] | EC50 (NHACs) | Emax (NHACs)
1 | Nc1cc([C@@H]2[C@@H](C(=O)Nc3ccc(Cl)c(Cl)c3)[C@H]3CC[C@@H]2O3)ccn1 [reference compound] | 243 µL/min/mg | 38 µL/min/mg | 5 µM | – | – | – | – | – | – | – | –
2 | Nc1cc([C@H]2[C@H]3O[C@H](C[C@@H]3O)[C@@H]2C(=O)Nc2ccc(Cl)c(Cl)c2)ccn1 [drawing 199] | 11 µL/min/mg | 7 µL/min/mg | 20 µM | – | – | – | – | – | – | – | –
3 | O=C(Nc1ccc(Cl)c(Cl)c1)[C@H]1[C@@H](c2ccncc2)[C@@H]2CC[C@H]1O2 [reference compound] | 466 µL/min/mg | 202 µL/min/mg | 6 µM | – | – | – | – | – | – | – | –
4 | O=C(Nc1ccc(Cl)c(Cl)c1)[C@H]1[C@@H](c2ccncc2)[C@H]2O[C@@H]1C[C@@H]2O | 7 µL/min/mg | 7 µL/min/mg | > 25 µM | – | – | – | – | – | – | – | –
5 | Cc1cc([C@H]2[C@H]3O[C@H](C[C@@H]3O)[C@H]2C(=O)Nc2ccc(Cl)c(Cl)c2)ccn1 (single isomer, unassigned) [Example 53a] | – | – | – | 0% | > 20 µM | 44% | 13 µM | 83% | 31 µM | > 50 µM | 12%
6 | Cc1cc([C@H]2[C@H]3O[C@H](C[C@@H]3O)[C@@H]2C(=O)Nc2cnc(Cl)c(Cl)c2)ccn1 (single isomer, unassigned) [Example 83] | – | – | – | 34% | > 20 µM | 150% | 1.5 µM | 106% | 12 µM | > 50 µM | 38%
7 | Cc1cc([C@H]2[C@H]3O[C@H]([C@@H]4C[C@@H]43)[C@H]2C(=O)Nc2ccc(Cl)c(Cl)c2)ccn1 (single isomer, unassigned) [Example 23a] | – | – | – | 28% | > 20 µM | 29% | 0.78 µM | 100% | 30 µM | 6.1 µM | 99%
8 | O=C(Nc1cccc(C(F)(F)F)c1)[C@H]1[C@@H](c2ccncc2)[C@H]2O[C@@H]1C[C@@H]2O (single isomer, unassigned) [Example 11a] | – | – | – | 6% | > 20 µM | 91% | 2.9 µM | 65% | 48 µM | 0.27 µM | 98%
9 | O=C(Nc1ccc(Cl)c(Cl)c1)[C@H]1[C@@H](c2ccncc2)[C@H]2O[C@@H]1C[C@@H]2O (single isomer, unassigned) [Example 47a] | – | – | – | 23% | > 20 µM | 82% | 2.1 µM | 88% | 33 µM | > 50 µM | 68%
10 | O=C(Nc1ccc(Cl)c(Cl)c1)[C@H]1[C@@H](c2ccnc(F)c2)[C@H]2O[C@@H]1C[C@@H]2O (single isomer, unassigned) [Example 52a] | – | – | – | 36% | > 20 µM | 80% | 0.49 µM | 71% | 17 µM | > 50 µM | 96%
11 | O=C(Nc1ccc(Cl)c(Cl)c1)[C@@H]1[C@@H](c2ccnc(F)c2)[C@H]2O[C@@H]1C[C@@H]2O (single isomer, unassigned) [Example 142a] | – | – | – | 81% | 6.6 µM | 83% | 1.2 µM | 93% | 33 µM | 22 µM | 68%
